Laboratory results: ChEMBL document CHEMBL1126274, “Mapping the binding site of tissue kallikrein: preparation and testing of all possible substrate analog inhibitors homologous with the sequence of kininogen between Ser386 and Gln392” (J Med Chem, 1992)
Residues, ends and D or L forms follow the SMILES beside them.

What follows are molecules tested against T1, Kallikrein 1 (Sus scrofa) (UniProt O97506) (assay: Compound was evaluated for inhibitory activity against beta-kallikrein; No inhibition at 0.5 mM concentration).
T1 sequence (whole entry): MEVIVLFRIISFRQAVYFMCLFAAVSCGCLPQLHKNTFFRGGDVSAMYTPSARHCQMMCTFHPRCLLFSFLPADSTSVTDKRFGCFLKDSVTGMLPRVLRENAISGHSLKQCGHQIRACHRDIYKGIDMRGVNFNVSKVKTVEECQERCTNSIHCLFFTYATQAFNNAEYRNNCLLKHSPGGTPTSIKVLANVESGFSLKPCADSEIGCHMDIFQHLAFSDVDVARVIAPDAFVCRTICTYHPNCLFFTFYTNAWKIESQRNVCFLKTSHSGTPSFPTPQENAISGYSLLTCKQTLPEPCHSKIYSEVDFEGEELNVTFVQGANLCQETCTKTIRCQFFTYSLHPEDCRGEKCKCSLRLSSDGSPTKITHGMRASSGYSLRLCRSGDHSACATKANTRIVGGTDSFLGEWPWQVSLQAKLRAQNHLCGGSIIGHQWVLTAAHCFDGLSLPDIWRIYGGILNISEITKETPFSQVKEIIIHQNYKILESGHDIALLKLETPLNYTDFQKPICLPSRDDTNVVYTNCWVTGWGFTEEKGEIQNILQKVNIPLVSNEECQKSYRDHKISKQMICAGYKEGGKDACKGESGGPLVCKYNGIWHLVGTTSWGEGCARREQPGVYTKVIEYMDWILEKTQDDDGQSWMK

| Molecule | inhibition |
| --- | --- |
| CC(=O)N[C@@H](CCCN=C(N)N)C(=O)N[C@@H](CO)C(N)=O (Ac-Arg-Ser-NH2) | No inhibition |
| CC(=O)N[C@@H](CCCN=C(N)N)C(=O)N[C@@H](CO)C(=O)N[C@H](C(N)=O)C(C)C (Ac-Arg-Ser-Val-NH2) | No inhibition |
| CC(=O)N1CCC[C@H]1C(=O)N[C@@H](Cc1ccccc1)C(=O)N[C@@H](CCCN=C(N)N)C(N)=O (Ac-Pro-Phe-Arg-NH2) | No inhibition |
| CC(=O)N[C@@H](CO)C(=O)N1CCC[C@H]1C(N)=O (Ac-Ser-Pro-NH2) | No inhibition |
| CC(=O)N[C@@H](CO)C(=O)N1CCC[C@H]1C(=O)N[C@@H](Cc1ccccc1)C(N)=O (Ac-Ser-Pro-Phe-NH2) | No inhibition |
| CC(=O)N[C@@H](CO)C(=O)N[C@H](C(N)=O)C(C)C (Ac-Ser-Val-NH2) | No inhibition |

The molecules below were run against T1, Kallikrein 1 (Sus scrofa) (assay: Compound was evaluated for inhibitory activity against beta-kallikrein; No inhibition at 1 mM concentration).

| Molecule | inhibition |
| --- | --- |
| CC(=O)N[C@@H](Cc1ccccc1)C(=O)N[C@@H](CCCN=C(N)N)C(N)=O (Ac-Phe-Arg-NH2) | No inhibition |
| CC(=O)N1CCC[C@H]1C(=O)N[C@@H](Cc1ccccc1)C(N)=O (Ac-Pro-Phe-NH2) | No inhibition |

These molecules were tested against T1, Kallikrein 1 (Sus scrofa) (assay: Compound was evaluated for inhibitory activity against beta-kallikrein; No inhibition at 20 mM concentration).

| Molecule | inhibition |
| --- | --- |
| CC(=O)N[C@@H](CO)C(=O)N[C@H](C(=O)N[C@@H](CCC(N)=O)C(N)=O)C(C)C (Ac-Ser-Val-Gln-NH2) | No inhibition |

The molecules below were run against T1, Kallikrein 1 (Sus scrofa) (assay: Compound was evaluated for inhibitory activity against beta-kallikrein; No inhibition at 28 mM concentration).

| Molecule | inhibition |
| --- | --- |
| CC(=O)N[C@H](C(=O)N[C@@H](CCC(N)=O)C(N)=O)C(C)C (Ac-Val-Gln-NH2) | No inhibition |

These molecules were tested against T2, Glandular kallikrein (Sus scrofa, UniProt P00752) (assay: Inhibitory activity against beta-kallikrein).
T2 sequence (P00752 whole entry): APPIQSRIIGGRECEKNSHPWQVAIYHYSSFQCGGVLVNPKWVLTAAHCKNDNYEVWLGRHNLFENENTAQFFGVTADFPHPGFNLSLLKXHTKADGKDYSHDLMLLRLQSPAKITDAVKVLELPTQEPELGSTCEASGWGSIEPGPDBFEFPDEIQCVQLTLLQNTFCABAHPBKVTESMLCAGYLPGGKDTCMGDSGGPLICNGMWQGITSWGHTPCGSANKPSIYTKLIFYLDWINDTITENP

| Molecule | Ki |
| --- | --- |
| CC(=O)N1CCC[C@H]1C(=O)N[C@@H](Cc1ccccc1)C(=O)N[C@@H](CCCN=C(N)N)C(=O)N[C@@H](CO)C(N)=O (Ac-PFRS-NH2) | 578 µM |
| CC(=O)N[C@@H](Cc1ccccc1)C(=O)N[C@@H](CCCNC(=N)N)C(=O)N[C@@H](CO)C(N)=O (Ac-Phe-Arg-Ser-NH2) | 718 µM |
| CC(=O)N[C@@H](CCCNC(=N)N)C(=O)N[C@@H](CO)C(=O)N[C@H](C(=O)N[C@@H](CCC(N)=O)C(N)=O)C(C)C (Ac-RSVQ-NH2) | 950 µM |
| Ac-PFRSVQ-NH2 | 167 µM |
| Ac-SPFRSV-NH2 | 135 µM |
| Ac-SPFRSVQ-NH2 | 101 µM |

The remaining lines, values ahead:

| Ki | Molecule |
| --- | --- |
| 479 µM | CC(=O)N[C@@H](Cc1ccccc1)C(=O)N[C@@H](CCCNC(=N)N)C(=O)N[C@@H](CO)C(=O)N[C@H](C(N)=O)C(C)C (Ac-FRSV-NH2) |
| 2290 µM | CC(=O)N[C@@H](CO)C(=O)N1CCC[C@H]1C(=O)N[C@@H](Cc1ccccc1)C(=O)N[C@@H](CCCN=C(N)N)C(N)=O (Ac-SPFR-NH2) |
| 230 µM | Ac-FRSVQ-NH2 |
| 266 µM | Ac-PFRSV-NH2 |
| 223 µM | Ac-SPFRS-NH2 |
